Our source for the solubility values is US20140010876A1, “PHARMACEUTICAL ADMINISTRATION FORMS COMPRISING 5-CHLORO-N-(METHYL)-2-THIOPHENECARBOXAMIDE” (BAYER PHARMA AKTIENGESELLSCHAFT, priority 2012, published 2014).

This series can be described thus: solubility of the active compound (I) in water. The format is physicochemical. The procedure:
During the development of formulations, the physicochemical characteristics have to be taken into account in combination with the particular biological properties of the active compound (I). The physicochemical characteristics include, for example, the poor solubility of the active compound (I) in water (about 7 mg/l). The particular biological properties of the active compound (I) are a food-dependent bioavailability (the “food effect”) which, in the case of rapid-release tablet formulations, is noticeable at dosages from about 15 mg, and a limited absorption from the lower sections of the intestine. As a consequence, the desired administration once daily requires specific pharmaceutical formulations releasing the active compound (I) taking into account its biopharmaceutical characteristics, such that on the one hand the active compound (I) is present in an amount sufficient to have a pharmaceutical effect and that on the other hand the active compound (I) is released in a manner such that its challenging properties with respect to solubility, food effect and absorption are overcome.

In the case of `O=C(NC[C@H]1CN(c2ccc(N3CCOCC3=O)cc2)C(=O)O1)c1ccc(Cl)s1` [active compound (I), 5-chloro-N-({(5S)-2-oxo-3-[4-(3-oxo-4-morpholinyl)phenyl]-1,3-oxazolidin-5-yl}methyl)-2-thiophenecarboxamide], the solubility was about 7 µg/mL.

In general, solubility refers to the concentration that dissolves in the medium under given conditions.
